Earlier results in patent publication US7582301B1, “Long-lasting antiviral fusion inhibitor peptide conjugates comprising albumin and human immunodeficiency virus (HIV) peptides” (Conjuchem Biotechnologies, Inc., priority 2000, dated 2009).
Read-outs that look alike come from different tables or passages of the source.

Assays:
HPIV-3 = conditions: for inhibition of viral infection of HPIV3, including fusion and syncytia formation: result in words, HPIV3-infected Hep2 cells and uninfected CV-1W cells
[1] = system: simian immunodeficiency virus (SIV); conditions: as crude peptides; result in words
measles virus (MeV) = conditions: result in words; MeV-infected and uninfected Vero cells
[2] = system: respiratory syncytial virus (RSV); conditions: RSV-infected and uninfected Hep-2 cells; for inhibition of viral infection of RSV, including fusion and syncytia formation: result in words
HIV-1 = conditions: result in words
[3] = result in words

## ALDPIDISIELNKAKSDLEESKEWIRRSNQKLDSI (VALDPIDISIELNKAKSDLEESKEWIRRSNQKLDS) [SEQ ID NO:38, anti-HPIV-3 peptide, DP178-like]
HPIV-3
  inhibition of viral infection of HPIV3, including fusion and syncytia formation: inhibits viral infection

## DFLEENITALLEEAQIQQEKNMYELQKLNSWDVFG [SEQ ID NO:72]
[1]
  anti-SIV activity: potent antiviral activity

## DPIDISIELNKAKSDLEESKEWIRRSNQKLDSIGN (LDPIDISIELNKAKSDLEESKEWIRRSNQKLDSIG) [SEQ ID NO:40, anti-HPIV-3 peptide, DP178-like]
HPIV-3
  inhibition of viral infection of HPIV3, including fusion and syncytia formation: inhibits viral infection

## ERKVDFLEENITALLEEAQIQQEKNMYELQKLNSW [SEQ ID NO:68]
[1]
  anti-SIV activity: potent antiviral activity

## EWERKVDFLEENITALLEEAQIQQEKNMYELQKLN [SEQ ID NO:66]
[1]
  anti-SIV activity: potent antiviral activity

## FLEENITALLEEAQIQQEKNMYELQKLNSWDVFGN [SEQ ID NO:73]
[1]
  anti-SIV activity: potent antiviral activity

## HRIDLGPPISLERLDVGTNLGNAIAKLEAKELLE [SEQ ID NO:77]
Measles virus (MeV)
  inhibition of viral infection of MeV, including fusion and syncytia formation: inhibits viral infection

## IALLSTNKAVVSLSNGVSVLTSKVLDLKNYIDK [SEQ ID NO:29, anti-RSV peptide from the F1 region of RSV]
[2]
  concentration inhibiting fusion and syncytia formation: less than 50 μg/ml
  inhibition of viral infection of RSV, including fusion and syncytia formation: inhibits viral infection

## IDISIELNKAKSDLEESKEWIRRSNQKLDSIGNWH (PIDISIELNKAKSDLEESKEWIRRSNQKLDSIGNW) [SEQ ID NO:42, anti-HPIV-3 peptide, DP178-like]
HPIV-3
  inhibition of viral infection of HPIV3, including fusion and syncytia formation: inhibits viral infection

## IDLGPPISLERLDVGTNLGNAIAKLEAKELLESS [SEQ ID NO:79]
Measles virus (MeV)
  inhibition of viral infection of MeV, including fusion and syncytia formation: inhibits viral infection

## KVDFLEENITALLEEAQIQQEKNMYELQKLNSWDV [SEQ ID NO:70]
[1]
  anti-SIV activity: potent antiviral activity

## LDPIDISIELNKAKSDLEESKEWIRRSNQKLDSIG (ALDPIDISIELNKAKSDLEESKEWIRRSNQKLDSI) [SEQ ID NO:39, anti-HPIV-3 peptide, DP178-like]
HPIV-3
  inhibition of viral infection of HPIV3, including fusion and syncytia formation: inhibits viral infection

## NNLLRAIEAQQHLLQLTVWQIKQLQARILAVERYLKDQ [DP107]
HIV-1; listed as DP-107
  anti-HIV-1 activity (inhibition of HIV-1 infection and fusion): potent inhibitors

## NSVALDPIDISIELNKAKSDLEESKEWIRRSNQKL (NNSVALDPIDISIELNKAKSDLEESKEWIRRSNQK) [SEQ ID NO:35, anti-HPIV-3 peptide, DP178-like]
HPIV-3; HPIV-3-infected Hep2 cells and uninfected CV-1W cells
  concentration inhibiting fusion and syncytia formation: less than 1 μg/ml
HPIV-3
  inhibition of viral infection of HPIV3, including fusion and syncytia formation: inhibits viral infection

## PIDISIELNKAKSDLEESKEWIRRSNQKLDSIGNW (DPIDISIELNKAKSDLEESKEWIRRSNQKLDSIGN) [SEQ ID NO:41, anti-HPIV-3 peptide, DP178-like]
HPIV-3
  inhibition of viral infection of HPIV3, including fusion and syncytia formation: inhibits viral infection

## PISLERLDVGTNLGNAIAKLEAKELLESSDQILR [SEQ ID NO:84]
Measles virus (MeV)
  inhibition of viral infection of MeV, including fusion and syncytia formation: inhibits viral infection

## QEWERKVDFLEENITALLEEAQIQQEKNMYELQKL [SEQ ID NO:65]
[1]
  anti-SIV activity: potent antiviral activity

## RKVDFLEENITALLEEAQIQQEKNMYELQKLNSWD [SEQ ID NO:69]
[1]
  anti-SIV activity: potent antiviral activity

## RSDIEKLKEAIRDTNKAVQSVQSSIGNLIVAIKSV [SEQ ID NO:58]
HPIV-3
  inhibition of viral infection of HPIV3, including fusion and syncytia formation: inhibits viral infection

## SEQ ID NO:8: analog peptide demonstrated to exhibit anti-viral activity; sequence not printed in the text (CGGNNLLRAIEAQQHLLQLTVWGIKQLQARILAVERYLKDQ)
[3]
  anti-viral activity: exhibit anti-viral activity

## TSVITIELSNIKENKCNGAKVKLIKQELDKYKN (TSVITIELSNIKENKCNGDAKVKLIKQELDKYKN) [SEQ ID NO:15, anti-RSV peptide from the F2 region of RSV]
[2]
  inhibition of viral infection of RSV, including fusion and syncytia formation: inhibits viral infection

## VDFLEENITALLEEAQIQQEKNMYELQKLNSWDVF [SEQ ID NO:71]
[1]
  anti-SIV activity: potent antiviral activity

## VEAKQARSDIEKLKEAIRDTNKAVQSVQSSIGNLI [SEQ ID NO:52]
HPIV-3
  inhibition of viral infection of HPIV3, including fusion and syncytia formation: inhibits viral infection

## VITIELSNIKENKCNGAKVKLIKQELDKYKNAV (VITIELSNIKENKCNGDAKVKLIKQELDKYKNAV) [SEQ ID NO:16, anti-RSV peptide from the F2 region of RSV]
[2]
  inhibition of viral infection of RSV, including fusion and syncytia formation: inhibits viral infection

## WERKVDFLEENITALLEEAQIQQEKNMYELQKLNS [SEQ ID NO:67]
[1]
  anti-SIV activity: potent antiviral activity

## WQEWERKVDFLEENITALLEEAQIQQEKNMYELQK [SEQ ID NO:64]
[1]
  anti-SIV activity: potent antiviral activity

## YTSVITIELSNIKENKCNGAKVKLIKQELDKYK (YTSVITIELSNIKENKCNGDAKVKLIKQELDKYK) [SEQ ID NO:14, anti-RSV peptide from the F2 region of RSV]
[2]
  inhibition of viral infection of RSV, including fusion and syncytia formation: inhibits viral infection

## enfuvirtide
HIV-1; listed as DP-178
  anti-HIV-1 activity (inhibition of HIV-1 infection and fusion): potent inhibitors
